Data reported in publication PMC5656322, “BAK1 is involved in AtRALF1-induced inhibition of root cell expansion” (PLoS Genetics, 2017).
Where no end group is shown, it is not given here.

Experiments:
HA-BAK1-ECD = test: Co-immunoprecipitation in vitro; format: binding, Arabidopsis thaliana; conditions: 100 nM each protein, pH 6.3, overnight 4 °C, agarose anti-HA beads
Method: The purified recombinant proteins AtRALF1 and HA-BAK1-ECD and the synthetic peptides RALF1(9–49) and RALF1(I6A) were combined in 200 μl of interaction buffer pH 6.3 (100 mM NaCl; 1 mM PMSF; 0.5%Triton X; 2.7 mM KCl; 8 mM NaH2PO4; 2 mM KH2PO4) overnight at 4 °C. A 100-nM concentration of each protein was used. This solution was incubated with agarose anti-HA beads (EZview Red Anti-HA Affinity Gel, Sigma) for 30 min at 4 °C to immunoprecipitate the proteins, washed 5 times with interaction buffer, eluted in 1X SDS sample buffer containing 10% β-mercaptoethanol and applied to an SDS-PAGE gel. The immunoprecipitated HA-BAK1-ECD and co-immunoprecipitated AtRALF1 were analyzed by protein blotting as described. The primary and secondary antibodies used to detect AtRALF1 were anti-AtRALF1 (1:10,000, Celula B, Immunology Laboratory, UFRGS, Brazil) and goat anti-rabbit HRP-conjugated secondary antibody (1: 10,000, BioRad), respectively.

[1] = tested on: intact Arabidopsis seedlings; test: Binding assay with acridinium-labeled AtRALF1, intact seedlings; design: species or system Arabidopsis thaliana; conditions: for competition of acriAtRALF1 binding: 10-fold excess of unlabeled peptide
Method: (A) Whole seedlings (5 days old) were treated for 15 min with acriAtRALF1 (acriR1), acriR1 and an excess of unlabeled AtRALF34 (R34), RALF1(9–49) [(R-9-49)], or AtRALF1 (R1), as indicated. The values are the mean ± SD of two measurements (5 seedlings each). (B) Microsomal fractions from wild-type and bak1 mutants were incubated for 15 min with acriAtRALF1 (acriR1), with acriR1 and an excess of unlabeled RALF1(9–49) [(R-9-49)], or with AtRALF1 (R1), as indicated. The values are the mean ± SD of two measurements. The proportions of labeled: unlabeled proteins are shown in parentheses. Single and triple asterisks indicate P < 0.1 and P < 0.01 (Student’s t test).
Arabidopsis seedlings were grown for 5 days on vertical plates. Roots were homogenized in extraction buffer [300 mM sucrose, 100 mM Tris-HCl pH 7.5, 25 mM EDTA, 25 mM NaF, 1 mM Na2MoO4, 1 mM PMSF and protease inhibitor cocktail (Roche), adjusted to pH 6.2], and the homogenate was spun at 2,000 x g for 10 min at 4 °C. The supernatant was recovered and centrifuged at 100,000 x g for 50 min at 4 °C to precipitate the microsomal pellet. The pellet was resuspended in the extraction buffer plus 0.5% Triton-X. Seedlings or microsomal fractions were placed in 200 μl of medium and incubated with 7 nM acridinium-labeled peptide (acriAtRALF1 or acriAtRALF34) and different concentrations of AtRALF1, AtRALF34 or RALF1(9–49) for 15–20 min at 4 °C on a shaker. After incubation, the seedlings or microsomal fractions were washed three times with the same medium. Unless indicated otherwise, five entire seedlings and approximately 10 ng of microsomal fractions were used per treatment. The resulting luminescence emissions from the acridinium were measured using a microplate reader (Biotec ELx 800) at 2 s after injecting 50 μl of a solution containing 20 mM H2O2 in 0.1 M NaOH. These experiments were repeated at least three times using independent biological replicates. Duplicates were used for each concentration or treatment. The data shown are from one representative experiment.
Supplementary file pgen.1007053.s017.pdf: S17 Fig Analyses of acridinium-labeled AtRALF1 (acriAtRALF1) and binding of acriAtRALF1 in bak1-4 and fer4 mutants. (A) The Ca^2+ mobilization assay comparing the acriAtRALF1 activity with the AtRALF1 peptide. A total of 20 time-points per treatment were measured over 160 sec and summed. The results are the means ± SD of two measurements. (B) acriAtRALF1 binding in whole seedlings and only in roots of Arabidopsis. The roots were excised just before measurements. Ctr, seedlings treated with unlabeled AtRALF1. (C) Whole seedlings (5 days old) were treated for 20 min with acriAtRALF1 (acriR1), acriR1 and an excess of unlabeled AtRALF1 (R1), as indicated. The values are the mean ± SD of three measurements (5 seedlings each). The proportions of labeled: unlabeled proteins are shown in parentheses. Triple asterisks indicates P < 0.001 (Student’s t test). (PDF) Click here for additional data file.
Supplementary file pgen.1007053.s018.pdf: S18 Fig Binding of acridinium-labeled AtRALF1 and AtRALF34 to intact Arabidopsis seedlings. (A) bak7 seedlings (5 days old) were treated for 15 min with acriAtRALF1 (acriR1), acriR1 and an excess of unlabeled AtRALF1 (R1), as indicated. (B) bak1 seedlings (5 days old) were treated for 15 min with acriAtRALF34 (acriR34), acriR34 and an excess of unlabeled AtRALF34 (R34) or AtRALF1 (R1), as indicated. The proportions of labeled: unlabeled proteins are shown in parentheses. The values are the mean ± SD of two measurements (5 seedlings each). (PDF) Click here for additional data file.

| Substance | co-immunoprecipitation with HA-BAK1-ECD (HA-BAK1-ECD) | competition of acriAtRALF1 binding ([1]; bak1 mutants) | competition of acriAtRALF1 binding ([1]; wild-type seedlings, 7 nM acriAtRALF1, 15 min, 4 °C) | reduction of acriAtRALF1 binding ([1]; bak1-1, 10-fold excess of AtRALF1) | acriAtRALF1 binding reduced to ([1]; bak1-1, 100- or 500-fold excess of AtRALF1) [%] | reduction of acriAtRALF1 binding ([1]; bak1-3, 10-fold excess of AtRALF1) [%] | acriAtRALF1 binding reduced to ([1]; bak1-3, 100- or 500-fold excess of AtRALF1) [%] | reduction of acriAtRALF1 binding ([1]; bak1-4, 10-fold excess of AtRALF1) [%] | acriAtRALF1 binding reduced to ([1]; bak1-4, 100- or 500-fold excess of AtRALF1) [%] | share of AtRALF1 binding due to BAK1 ([1]; intact roots) | reduction of acriAtRALF1 binding ([1]; wild-type seedlings, 10-fold excess of unlabeled AtRALF1) [%] | reduction of acriAtRALF1 binding ([1]; wild-type seedlings, 100-fold excess of AtRALF1, printed "up to") [%] | further reduction of acriAtRALF1 binding ([1]; wild-type seedlings, 500-fold excess of AtRALF1) |
| --- | --- | --- | --- | --- | --- | --- | --- | --- | --- | --- | --- | --- | --- |
| RALF1(9–49): inactive AtRALF1 peptide which has a deletion of the first 8 amino acids (QSLKRNSVPCSRRGASYYNCQNGAQANPYSRGCSKIARCRS; ends and bridges not checked; cysteine pairing not given here; UniProt Q9SRY3 80-120, looked up, fragment) | did not co-immunoprecipitate with BAK1 | did not reduce the binding in the mutant backgrounds | could not be competed out | – | – | – | – | – | – | – | – | – | – |
| AtRALF1: root-specific RALF isoform in Arabidopsis; recombinant peptide hormone produced in E. coli (ATTKYISYQSLKRNSVPCSRRGASYYNCQNGAQANPYSRGCSKIARCRS; ends and bridges not checked; cysteine pairing not given here) | co-immunoprecipitated | – | – | approximately 32% | 54 | ~35 | 63 | ~33 | 61 | approximately 30% | 24 | 59 | No further reduction was observed |
